# Laboratory results reported in patent US10004701B2, “Methods and compositions for treating infection” (UNIVERSITY OF ROCHESTER, priority 2012, dated 2018).
# Where two headings read alike, the source gives them in different places.
# Tests used:
# Assay in all cases: AK assay 384-well format, Prestwick library screening
# K. pneumoniae = type: cell-based, Klebsiella pneumoniae; settings: for AK-based Prestwick Library Screening Results: K. pneumoniae (increase in extracellular AK activity): 384-well
# P. aeruginosa = type: cell-based, Pseudomonas aeruginosa; settings: for AK-based Prestwick Library Screening Results: P. aeruginosa (increase in extracellular AK activity): 384-well
# E. cloacae = type: cell-based, Enterobacter cloacae; settings: for AK-based Prestwick Library Screening Results: E. cloacae (increase in extracellular AK activity): 384-well
# E. coli = type: cell-based, Escherichia coli; settings: for AK-based Prestwick Library Screening Results: E. coli (increase in extracellular AK activity): 384-well
# [1] = system: A. baumannii strain 98-37-09; type: cell-based, Acinetobacter baumannii; settings: for AK-based Prestwick Library Screening Results: A. baumannii (increase in extracellular AK activity): 384-well
# E. faecium = type: cell-based, Enterococcus faecium; settings: for AK-based Prestwick Library Screening Results: E. faecium (increase in extracellular AK activity): 384-well
# [2] = system: S. aureus strain USA300-0114; type: cell-based, Staphylococcus aureus; settings: for AK-based Prestwick Library Screening Results: S. aureus (increase in extracellular AK activity): 384-well
# [3] = 50 μM final drug concentration, planktonic, cutoff for positive-scoring molecules 3-fold increase
# [4] = planktonic K. pneumoniae, 50 μM final drug concentration, cutoff for positive-scoring molecules 3-fold increase
# [5] = planktonic P. aeruginosa, 50 μM final drug concentration, cutoff for positive-scoring molecules 3-fold increase
# [6] = planktonic E. cloacae, 50 μM final drug concentration, cutoff for positive-scoring molecules 3-fold increase
# [7] = planktonic E. coli, 50 μM final drug concentration, cutoff for positive-scoring molecules 3-fold increase
# [8] = planktonic A. baumannii, 50 μM final drug concentration, cutoff for positive-scoring molecules 3-fold increase
# [9] = planktonic E. faecium, 50 μM final drug concentration, cutoff for positive-scoring molecules 3-fold increase
# [10] = planktonic S. aureus, 50 μM final drug concentration, cutoff for positive-scoring molecules 3-fold increase
# [11] = planktonic K. pneumoniae, 50 μM final drug concentration, […]
# [12] = planktonic P. aeruginosa, 50 μM final drug concentration, […]
# [13] = planktonic E. cloacae, 50 μM final drug concentration, […]
# [14] = planktonic E. coli, 50 μM final drug concentration, […]
# [15] = planktonic A. baumannii, 50 μM final drug concentration, […]
# [16] = planktonic E. faecium, 50 μM final drug concentration, […]
# [17] = planktonic S. aureus, 50 μM final drug concentration, […]
# [18] = 50 μM final drug concentration, 384-well format, cutoff for positive-scoring molecules 3-fold increase
# [19] = 50 μM final drug concentration, planktonic, cutoff for positive 3-fold increase
# [20] = 50 μM final drug concentration, planktonic, […]
substance,measurement,setting,value
Carbinoxamine maleate salt,"AK-based Prestwick Library Screening Results, K. pneumoniae (fold increase in extracellular AK activity)",K. pneumoniae; [3],0.6
same,"AK-based Prestwick Library Screening Results, P. aeruginosa (fold increase in extracellular AK activity)",P. aeruginosa; [3],0.6
same,"AK-based Prestwick Library Screening Results, E. cloacae (fold increase in extracellular AK activity)",E. cloacae; [3],0.7
same,"AK-based Prestwick Library Screening Results, E. coli (fold increase in extracellular AK activity)",E. coli; [3],0.7
same,"AK-based Prestwick Library Screening Results, A. baumannii (fold increase in extracellular AK activity)",[1]; [3],0.7
same,"AK-based Prestwick Library Screening Results, E. faecium (fold increase in extracellular AK activity)",E. faecium; [3],0.8
same,"AK-based Prestwick Library Screening Results, S. aureus (fold increase in extracellular AK activity)",[2]; [3],0.6
Clofilium tosylate,AK-based Prestwick Library Screening Results: K. pneumoniae (increase in extracellular AK activity),K. pneumoniae; [4],1.5
same,AK-based Prestwick Library Screening Results: P. aeruginosa (increase in extracellular AK activity),P. aeruginosa; [5],1.3
same,AK-based Prestwick Library Screening Results: E. cloacae (increase in extracellular AK activity),E. cloacae; [6],1.2
same,AK-based Prestwick Library Screening Results: E. coli (increase in extracellular AK activity),E. coli; [7],1.5
same,AK-based Prestwick Library Screening Results: A. baumannii (increase in extracellular AK activity),[1]; [8],1.6
same,AK-based Prestwick Library Screening Results: E. faecium (increase in extracellular AK activity),E. faecium; [9],1.4
same,AK-based Prestwick Library Screening Results: S. aureus (increase in extracellular AK activity),[2]; [10],1.2
Colistin sulfate,"AK-based Prestwick Library Screening Results, K. pneumoniae (increase in extracellular AK activity)",K. pneumoniae; [11],24.1
same,"AK-based Prestwick Library Screening Results, P. aeruginosa (increase in extracellular AK activity)",P. aeruginosa; [12],23.6
same,"AK-based Prestwick Library Screening Results, E. cloacae (increase in extracellular AK activity)",E. cloacae; [13],0.7
same,"AK-based Prestwick Library Screening Results, E. coli (increase in extracellular AK activity)",E. coli; [14],42.2
same,"AK-based Prestwick Library Screening Results, A. baumannii (increase in extracellular AK activity)",[1]; [15],10.0
same,"AK-based Prestwick Library Screening Results, E. faecium (increase in extracellular AK activity)",E. faecium; [16],1.0
same,"AK-based Prestwick Library Screening Results, S. aureus (increase in extracellular AK activity)",[2]; [17],0.6
Cotinine (−),"AK-based Prestwick Library Screening Results, K. pneumoniae (increase in extracellular AK activity)",K. pneumoniae; [18],0.4
same,"AK-based Prestwick Library Screening Results, P. aeruginosa (increase in extracellular AK activity)",P. aeruginosa; [18],0.3
same,"AK-based Prestwick Library Screening Results, E. cloacae (increase in extracellular AK activity)",E. cloacae; [18],0.3
same,"AK-based Prestwick Library Screening Results, E. coli (increase in extracellular AK activity)","E. coli; 50 μM final drug concentration, 384-well format, […]",0.5
same,"AK-based Prestwick Library Screening Results, A. baumannii (increase in extracellular AK activity)",[1]; [18],0.3
same,"AK-based Prestwick Library Screening Results, E. faecium (increase in extracellular AK activity)",E. faecium; [18],0.8
same,"AK-based Prestwick Library Screening Results, S. aureus (increase in extracellular AK activity)",[2]; [18],0.4
Cyanocobalamin,"AK-based Prestwick Library Screening Results, K. pneumoniae (increase in extracellular AK activity)",K. pneumoniae; [4],0.6
same,"AK-based Prestwick Library Screening Results, P. aeruginosa (increase in extracellular AK activity)",P. aeruginosa; [5],0.7
same,"AK-based Prestwick Library Screening Results, E. cloacae (increase in extracellular AK activity)",E. cloacae; [6],1.2
same,"AK-based Prestwick Library Screening Results, E. coli (increase in extracellular AK activity)",E. coli; [14],0.8
same,"AK-based Prestwick Library Screening Results, A. baumannii (increase in extracellular AK activity)",[1]; [8],0.8
same,"AK-based Prestwick Library Screening Results, E. faecium (increase in extracellular AK activity)",E. faecium; [9],0.8
same,"AK-based Prestwick Library Screening Results, S. aureus (increase in extracellular AK activity)",[2]; [10],0.5
Cytisine (−),"AK-based Prestwick Library Screening Results, K. pneumoniae (fold increase in extracellular AK activity)",K. pneumoniae,1.2
same,"AK-based Prestwick Library Screening Results, P. aeruginosa (fold increase in extracellular AK activity)",P. aeruginosa,1.2
same,"AK-based Prestwick Library Screening Results, E. cloacae (fold increase in extracellular AK activity)",E. cloacae,1.5
same,"AK-based Prestwick Library Screening Results, E. coli (fold increase in extracellular AK activity)",E. coli,1.3
same,"AK-based Prestwick Library Screening Results, A. baumannii (fold increase in extracellular AK activity)",[1],1.4
same,"AK-based Prestwick Library Screening Results, E. faecium (fold increase in extracellular AK activity)",E. faecium,1.0
same,"AK-based Prestwick Library Screening Results, S. aureus (fold increase in extracellular AK activity)",[2],1.0
Deptropine citrate,"AK-based Prestwick library screening result, K. pneumoniae (fold increase in extracellular AK activity)",K. pneumoniae; [11],0.9
same,"AK-based Prestwick library screening result, P. aeruginosa (fold increase in extracellular AK activity)",P. aeruginosa; [12],1.0
same,"AK-based Prestwick library screening result, E. cloacae (fold increase in extracellular AK activity)",E. cloacae; [13],1.6
same,"AK-based Prestwick library screening result, E. coli (fold increase in extracellular AK activity)",E. coli; [14],1.5
same,"AK-based Prestwick library screening result, A. baumannii (fold increase in extracellular AK activity)",[1]; [15],1.3
same,"AK-based Prestwick library screening result, E. faecium (fold increase in extracellular AK activity)",E. faecium; [16],1.1
same,"AK-based Prestwick library screening result, S. aureus (fold increase in extracellular AK activity)",[2]; [17],1.1
Dihydroergotamine tartrate,AK-based Prestwick Library Screening Results: K. pneumoniae (increase in extracellular AK activity),K. pneumoniae; [4],0.9
same,AK-based Prestwick Library Screening Results: P. aeruginosa (increase in extracellular AK activity),P. aeruginosa; [5],1.2
same,AK-based Prestwick Library Screening Results: E. cloacae (increase in extracellular AK activity),E. cloacae; [6],1.3
same,AK-based Prestwick Library Screening Results: E. coli (increase in extracellular AK activity),E. coli; [14],1.3
same,AK-based Prestwick Library Screening Results: A. baumannii (increase in extracellular AK activity),[1]; [8],1.5
same,AK-based Prestwick Library Screening Results: E. faecium (increase in extracellular AK activity),E. faecium; [9],1.0
same,AK-based Prestwick Library Screening Results: S. aureus (increase in extracellular AK activity),[2]; [10],1.0
Dihydroergotoxine mesylate,"AK-based Prestwick Library Screening Results, K. pneumoniae (increase in extracellular AK activity)",K. pneumoniae; [4],0.5
same,"AK-based Prestwick Library Screening Results, P. aeruginosa (increase in extracellular AK activity)",P. aeruginosa; [5],0.4
same,"AK-based Prestwick Library Screening Results, E. cloacae (increase in extracellular AK activity)",E. cloacae; [6],0.6
same,"AK-based Prestwick Library Screening Results, E. coli (increase in extracellular AK activity)",E. coli; [7],0.6
same,"AK-based Prestwick Library Screening Results, A. baumannii (increase in extracellular AK activity)",[1]; [8],0.5
same,"AK-based Prestwick Library Screening Results, E. faecium (increase in extracellular AK activity)",E. faecium; [9],0.8
same,"AK-based Prestwick Library Screening Results, S. aureus (increase in extracellular AK activity)",[2]; [10],0.4
Eburnamonine (−),"AK-based Prestwick Library Screening Results, K. pneumoniae (fold increase in extracellular AK activity)",K. pneumoniae; [19],1.0
same,"AK-based Prestwick Library Screening Results, P. aeruginosa (fold increase in extracellular AK activity)",P. aeruginosa; [19],1.3
same,"AK-based Prestwick Library Screening Results, E. cloacae (fold increase in extracellular AK activity)",E. cloacae; [19],1.4
same,"AK-based Prestwick Library Screening Results, E. coli (fold increase in extracellular AK activity)",E. coli; [19],1.2
same,"AK-based Prestwick Library Screening Results, A. baumannii (fold increase in extracellular AK activity)",[1]; [19],1.1
same,"AK-based Prestwick Library Screening Results, E. faecium (fold increase in extracellular AK activity)",E. faecium; [19],1.1
same,"AK-based Prestwick Library Screening Results, S. aureus (fold increase in extracellular AK activity)",[2]; [19],1.0
Foliosidine,"AK-based Prestwick Library Screening Results, K. pneumoniae (fold increase in extracellular AK activity)",K. pneumoniae; [3],0.8
same,"AK-based Prestwick Library Screening Results, P. aeruginosa (fold increase in extracellular AK activity)",P. aeruginosa; [3],0.8
same,"AK-based Prestwick Library Screening Results, E. cloacae (fold increase in extracellular AK activity)",E. cloacae; [3],1.0
same,"AK-based Prestwick Library Screening Results, E. coli (fold increase in extracellular AK activity)",E. coli; [20],0.9
same,"AK-based Prestwick Library Screening Results, A. baumannii (fold increase in extracellular AK activity)",[1]; [3],0.8
same,"AK-based Prestwick Library Screening Results, E. faecium (fold increase in extracellular AK activity)",E. faecium; [3],0.9
same,"AK-based Prestwick Library Screening Results, S. aureus (fold increase in extracellular AK activity)",[2]; [3],0.7
Guanadrel sulfate,"AK-based Prestwick Library Screening Results, K. pneumoniae (fold increase in extracellular AK activity)",K. pneumoniae; [20],0.7
same,"AK-based Prestwick Library Screening Results, P. aeruginosa (fold increase in extracellular AK activity)",P. aeruginosa; [20],1.1
same,"AK-based Prestwick Library Screening Results, E. cloacae (fold increase in extracellular AK activity)",E. cloacae; [20],1.4
same,"AK-based Prestwick Library Screening Results, E. coli (fold increase in extracellular AK activity)",E. coli; [20],1.3
same,"AK-based Prestwick Library Screening Results, A. baumannii (fold increase in extracellular AK activity)",[1]; [20],1.0
same,"AK-based Prestwick Library Screening Results, E. faecium (fold increase in extracellular AK activity)",E. faecium; [20],1.0
same,"AK-based Prestwick Library Screening Results, S. aureus (fold increase in extracellular AK activity)",[2]; [20],1.2
